According to publication PMC8780741, “Integration of In Silico, In Vitro and In Situ Tools for the Preformulation and Characterization of a Novel Cardio-Neuroprotective Compound during the Early Stages of Drug Development” (Pharmaceutics, 2022):

How the values were obtained:
[1] = Human oral fraction absorbed estimated from rat intestinal permeability; conditions: calculated from rat permeability values in all segments (whole small intestine)
Source text: The permeability values obtained in the different intestinal sections (See Table 4) corroborate the results obtained in the cell lines. […] This supports that if a compound has a high absorbed dose fraction, it will have a high-permeability, not necessarily in the jejunum, but somewhere along the relevant intestinal absortive regions. Correlations between permeability values in the rat small intestine (whole or segments) obtained by Doluisio’s method and their correlation with the orally absorbed fraction in humans were previously published. In fact, Fabs can be calculated considering the permeability values in all segments (whole small intestine) and the estimated oral absorbed fraction was 85.12%. According to this property, the drug may be a good candidate to be formulated for oral administration.

rat small intestine = test: In situ closed-loop (Doluisio) intestinal perfusion; assay type: in vivo; conditions: 100 µM, n = 4
Procedure: The animal experiments, performed on 250–300 g male Wistar rats, were designed following the guidelines described in EC Directive 86/609, Council of the Europe Convention ETS 123 and Spanish national laws about the use of animals in research, and were approved by the Spanish Committee (Spain, code A1330354541263).
The “closed-loop” in situ perfusion method, based on the Doluisio technique, was performed according to published reports. Briefly, in anesthetized rats in which an abdominal incision was made, the small intestine was located and the bile duct was ligated avoiding enterohepatic circulation of the drug. The procedure for making three loops in the duodenum, jejunum, and ileum was the same as previously described. Intestinal contents were removed by washing with physiological solutions and the peritoneal cavity was covered with cotton wool pads to prevent evaporation of peritoneal fluid and loss of body heat.
A solution of JM-20 (100 µM) was perfused with one syringe, and 5 min later the sample was collected with the other syringe. This procedure was performed alternatively for 30 min to ensure mixing of the solution in the lumen of small intestine. Samples were immediately analyzed for JM-20 at maximum wavelengths (λmax = 262 nm) by HPLC (Alliance-Waters 2695) using a Nova-Pak C18 column (4 μM, 3.9 × 150 mm) and UV detector (Waters 2487). The analytical procedure was as follows previously validated. The exact length of the intestine was determined at the end of the study.
The calculation of permeability takes into account that water flux during the experiment can be significant, the drug concentration in each sample was modified according to the following Equation (3):(3) C=CeVT/V0 where Ct represents the concentration without water reabsorption at time t, Ce is the experimental concentration value, V0 is the initial volume and Vt is the final volume. The coefficient of absorption rate (ka) and the initial concentration of JM-20 available for absorption (C0) were determined by non-linear regression of the following Equation (4):(4) Ct=C0·e^−kat […]

[2] = design: method as in earlier work; conditions: pH 4.5 and 6.8, 24 h, 37 ± 1°C; cited from earlier work
[3] = Apparent permeability across MDCK-MDR1 monolayers; assay type: in vitro ADME, Canine; conditions: dog, 37 °C, stirring at 50 rpm
Procedure: MDCK (Madin–Darby Canine Kidney) cells, their transfected clone MDCK-MDR1, and Caco-2 cells were grown in the modified Dulbecco Eagle medium added with L-glutamine, fetal bovine serum and penicillin−streptomycin. The number of cells seeded in transwells with a surface area of 4.2 cm^2 depended on the cell line: 250,000 cells/cm^2 for MDCK and Caco-2 and 150,000 cells/cm^2 for MDCK-MDR1. Experiments were performed between 7 and 9 days for MDCK and MDCK-MDR1 and between 19 and 21 for Caco-2 cells after seeding. Prior to drug placement, cell monolayer integrity was assessed by measuring transepithelial electrical resistance (TEER). Transport studies were performed on an orbital shaker at 37 °C and 50 rpm. Four samples of 200 μL were taken from the receptor side at 0, 15, 30, 60 and 90 min, and two samples from the donor compartment at the beginning and end of the experiment. A standard experiment was performed with the same buffer for the apical and basolateral compartments in the apical to basolateral (A-B) and basolateral to apical (B-A) directions. The drug concentration was 100 μM in all experiments and samples were analyzed immediately by HPLC. The retention time was 2.3 min at maximum wavelengths (λmax = 260 nm). […] The lower limit of quantitation of JM-20 was adequate to interpolate the values obtained in the samples. […]

[4] = design: method as in earlier work; conditions: potentiometric titration; cited from earlier work

Estimated oral absorbed fraction (Fabs) in humans [1]: 85.12% | Peff ± SD (rat small intestine; Duodenum): 9.20 ± 0.89 ×10^−5 cm/s | Peff ± SD (rat small intestine; Ileum): 6.82 ± 1.44 ×10^−5 cm/s | Peff ± SD (rat small intestine; Jejunum): 6.63 ± 1.30 ×10^−5 cm/s | Papp A→B at 90 min, 100 µM [3]: 21.7 ± 2.2 ×10⁻⁶ cm/s | Papp B→A at 90 min, 100 µM [3]: 9.6 ± 0.5 ×10⁻⁶ cm/s
Structure (SMILES): CCOC(=O)C1=C(C)NC2=C(C=Nc3ccccc3N2)C1c1ccccc1[N+](=O)[O-] (centres unmarked) [JM-20, 3-ethoxycarbonyl-2-methyl-4-(2-nitrophenyl)-4,11-dihydro-1H-pyrido [2,3-b][1,5] benzodiazepine]
Qualitative stability in aqueous medium [2]: some degradation | pKa [4]: 5.25
